Here are results for three compounds from patent US20230265151A1, “GIP/GLP1 CO-AGONIST COMPOUNDS” (priority 2020, published 2023).

Like-named read-outs stand apart in the source and are kept apart here.

Assay [1] has as its target T1, human Gcg receptor (hGcgR) (Homo sapiens, UniProt P47871).
T1 construct: expressed in transfected cells; crude membranes
The assay can be described thus: [125I]-Glucagon binding, SPA with membranes of HEK293 cells expressing hGcgR.

The target of assay [2] is T2, human GLP-1 receptor (hGLP-1R) (Homo sapiens, UniProt P43220).
T2 construct: expressed in transfected cells; crude membranes
The assay can be described thus: [125I]-GLP-1 binding, SPA with membranes of HEK293 cells expressing hGLP-1R.

In another assay the target is T3, hGIPR (Homo sapiens, UniProt P48546).
T3 construct: expressed in transfected cells
T3 sequence (P48546 22-466): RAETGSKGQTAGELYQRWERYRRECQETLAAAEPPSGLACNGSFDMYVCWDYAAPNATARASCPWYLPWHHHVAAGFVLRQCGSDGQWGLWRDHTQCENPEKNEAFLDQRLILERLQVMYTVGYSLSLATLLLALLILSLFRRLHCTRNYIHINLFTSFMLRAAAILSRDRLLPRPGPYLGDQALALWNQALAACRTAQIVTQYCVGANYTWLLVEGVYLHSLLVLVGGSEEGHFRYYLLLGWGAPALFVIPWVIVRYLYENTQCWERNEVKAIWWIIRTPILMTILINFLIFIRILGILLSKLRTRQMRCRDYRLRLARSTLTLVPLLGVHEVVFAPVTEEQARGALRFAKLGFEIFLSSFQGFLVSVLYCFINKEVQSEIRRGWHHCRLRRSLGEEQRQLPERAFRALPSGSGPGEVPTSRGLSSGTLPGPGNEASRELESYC
In words: Functional cAMP formation (HTRF) in HEK-293 clonal cells expressing hGIPR, 0.1% bovine casein, without or with 1.0% human serum albumin. It is filed as cell-based. As to conditions: for EC50: geometric mean. An outline of the steps:
(§1)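 Readings of the HTRF 665/620 nm ratio, which falls as cAMP rises, were converted to nM cAMP using a standard curve after 30 min peptide exposure at 37° C.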
Background: cAMP levels reflect the balance of adenylyl cyclase and phosphodiesterase activity.

In the next assay the target is T4, hGCGR (Homo sapiens, UniProt P47871).
T4 construct: expressed in transfected cells
In words: Functional cAMP formation (HTRF) in HEK-293 clonal cells expressing hGCGR, 0.1% bovine casein, without or with 1.0% human serum albumin. It is filed as cell-based. An outline of the steps: as §1

A further assay addresses hGLP-1R (Homo sapiens, UniProt P43220). In words: Functional cAMP formation (HTRF) in HEK-293 clonal cells expressing hGLP-1R, 0.1% bovine casein, without or with 1.0% human serum albumin. It is filed as cell-based. Also on record: expressed in transfected cells. As to conditions: for EC50: geometric mean. A digest of the protocol: as §1
Setting [3] is: human GcgR, geometric mean (SEM, n), read-out: Binding Affinity Ki, nM (SEM, n) hGCGR.
Where [4] appears, read: human GLP-1R, geometric mean (SEM, n), read-out: Binding Affinity Ki, nM (SEM, n) hGLP-1R.

By Ki is commonly meant a dissociation constant, usually derived from enzyme kinetics or from competition with a known ligand. Usually Emax stands for the greatest response seen or fitted, relative to the assay's reference. In general, EC50 refers to the concentration giving half of the maximal effect.

Chain of hGLP-1R (P43220 24-463): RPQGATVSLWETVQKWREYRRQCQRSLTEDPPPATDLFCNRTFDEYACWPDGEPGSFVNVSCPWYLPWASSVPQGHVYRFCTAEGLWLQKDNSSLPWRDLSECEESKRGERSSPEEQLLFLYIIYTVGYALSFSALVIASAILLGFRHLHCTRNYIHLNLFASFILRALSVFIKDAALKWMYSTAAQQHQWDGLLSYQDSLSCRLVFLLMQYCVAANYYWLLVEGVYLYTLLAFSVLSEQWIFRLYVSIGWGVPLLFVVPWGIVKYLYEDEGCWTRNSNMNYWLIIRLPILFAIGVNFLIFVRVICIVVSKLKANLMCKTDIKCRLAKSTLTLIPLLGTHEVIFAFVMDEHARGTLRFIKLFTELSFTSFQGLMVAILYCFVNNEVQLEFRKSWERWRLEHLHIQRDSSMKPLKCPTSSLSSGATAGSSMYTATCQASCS
T1 sequence (P47871 26-477): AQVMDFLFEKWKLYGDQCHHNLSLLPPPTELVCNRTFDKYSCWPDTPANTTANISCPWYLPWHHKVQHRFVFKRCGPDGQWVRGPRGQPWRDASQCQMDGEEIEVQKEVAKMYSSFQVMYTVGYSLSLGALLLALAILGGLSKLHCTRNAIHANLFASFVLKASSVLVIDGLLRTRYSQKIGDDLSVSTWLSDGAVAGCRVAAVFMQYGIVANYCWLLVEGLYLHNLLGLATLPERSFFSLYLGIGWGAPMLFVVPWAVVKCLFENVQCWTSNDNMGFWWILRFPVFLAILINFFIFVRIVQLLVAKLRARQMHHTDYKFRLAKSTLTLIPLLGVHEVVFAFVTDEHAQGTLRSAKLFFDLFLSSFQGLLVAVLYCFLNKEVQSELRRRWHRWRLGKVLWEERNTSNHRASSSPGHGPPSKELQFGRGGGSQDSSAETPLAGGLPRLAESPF
T4 sequence (P47871 26-477): as above

In the case of `CC[C@H](C)[C@H](NC(=O)[C@H](CC(C)C)NC(=O)[C@](C)(Cc1ccc(O)cc1)NC(=O)[C@@H](CCC(=O)O)NC(=O)[C@@H](NC(=O)[C@H](Cc1ccccc1)NC(=O)[C@H](CCC(=O)O)NC(=O)C(C)(C)NC(=O)[C@H](CCC(N)=O)NC(=O)[C@H](C)NC(=O)[C@H](CCCCNC(=O)COCCOCCNC(=O)COCCOCCNC(=O)CC[C@H](NC(=O)CCCCCCCCCOc1ccc(C(=O)O)cc1)C(=O)O)NC(=O)[C@H](CCCN)NC(=O)[C@H](CC(=O)O)NC(=O)[C@H](CC(C)C)NC(=O)[C@](C)(CC(C)C)NC(=O)[C@@H](NC(=O)[C@H](CO)NC(=O)[C@H](Cc1ccncc1)NC(=O)[C@H](CC(=O)O)NC(=O)[C@H](CO)NC(=O)[C@@H](NC(=O)[C@](C)(Cc1ccccc1F)NC(=O)[C@@H](NC(=O)CNC(=O)[C@H](CCC(=O)O)NC(=O)C(C)(C)NC(=O)[C@@H](N)Cc1ccc(O)cc1)[C@@H](C)O)[C@@H](C)O)[C@@H](C)CC)[C@@H](C)CC)C(=O)N[C@@H](CCC(=O)O)C(=O)NCC(=O)NCC(=O)N[C@@H](CCCCNC(=O)COCCOCCNC(=O)COCCOCCNC(=O)CC[C@H](NC(=O)CCCCCCCCCOc1ccc(C(=O)O)cc1)C(=O)O)C(=O)N[C@@H](CO)C(=O)N[C@@H](CO)C(=O)NCC(=O)N[C@@H](C)C(=O)N1CCC[C@H]1C(=O)N1CCC[C@H]1C(=O)N1CCC[C@H]1C(=O)N[C@@H](CO)C(N)=O` [Example 2], the Ki was above 958 nM in assay [1] and 1.04 nM in assay [2]. Besides, the Emax at hGIPR (HEK293, read-out: hGIPR Emax, % ± SEM, 0.1% bovine casein and 1.0% human serum albumin, 37° C., percent of maximal response to GIP(1-42)NH2) worked out at 87.8 ± 5.11%; at hGIPR (HEK293, read-out: hGIPR Emax, % ± SEM, percent of maximal response to GIP(1-42)NH2, 37° C., 0.1% bovine casein, arithmetic mean) it was 93 ± 0.813%; on hGLP-1R (HEK293, read-out: hGLP-1R Emax, % ± SEM, percent of maximal response to GLP-1(7-36)NH2, 37° C., 0.1% bovine casein, arithmetic mean), 93.1 ± 5.83%. The half-maximal effective concentration (EC50) at hGIPR (hGIPR EC50, nM (SEM, n), 0.1% bovine casein and 1.0% human serum albumin, 37° C.) is 0.659 nM; at hGIPR (hGIPR EC50, nM (SEM, n), cAMP, incubated at 37° C., 0.1% bovine casein (no human serum albumin)), 0.0154 nM; at hGCGR (hGCGR EC50, nM (SEM, n), 0.1% bovine casein and 1.0% human serum albumin, 37° C., geometric mean), above 9950 nM; on hGCGR (hGCGR EC50, nM (SEM, n), cAMP, incubated at 37° C., 0.1% bovine casein (no human serum albumin), geometric mean), above 9950 nM; at hGLP-1R (hGLP-1R EC50, nM (SEM, n), 0.1% bovine casein and 1.0% human serum albumin, 37° C.), 32.1 nM; at hGLP-1R (hGLP-1R EC50, nM (SEM, n), cAMP, incubated at 37° C., 0.1% bovine casein (no human serum albumin)) it was 1.14 nM.
With `CC[C@H](C)[C@H](NC(=O)[C@H](CC(C)C)NC(=O)[C@](C)(Cc1ccc(O)cc1)NC(=O)[C@@H](CCC(=O)O)NC(=O)[C@@H](NC(=O)[C@H](Cc1ccccc1)NC(=O)[C@H](CCC(=O)O)NC(=O)C(C)(C)NC(=O)[C@H](CCC(N)=O)NC(=O)[C@H](C)NC(=O)[C@H](CCCCNC(=O)COCCOCCNC(=O)COCCOCCNC(=O)CC[C@H](NC(=O)CCCCCCCCCCCCC(=O)O)C(=O)O)NC(=O)[C@H](CCCN)NC(=O)[C@H](CC(=O)O)NC(=O)[C@H](CC(C)C)NC(=O)[C@](C)(CC(C)C)NC(=O)[C@@H](NC(=O)[C@H](CO)NC(=O)[C@H](Cc1ccncc1)NC(=O)[C@H](CC(=O)O)NC(=O)[C@H](CO)NC(=O)[C@@H](NC(=O)[C@](C)(Cc1ccccc1F)NC(=O)[C@@H](NC(=O)CNC(=O)[C@H](CCC(=O)O)NC(=O)C(C)(C)NC(=O)[C@@H](N)Cc1ccc(O)cc1)[C@@H](C)O)[C@@H](C)O)[C@@H](C)CC)[C@@H](C)CC)C(=O)N[C@@H](CCC(=O)O)C(=O)NCC(=O)NCC(=O)N[C@@H](CCCCNC(=O)COCCOCCNC(=O)COCCOCCNC(=O)CC[C@H](NC(=O)CCCCCCCCCCCCC(=O)O)C(=O)O)C(=O)N[C@@H](CO)C(=O)N[C@@H](CO)C(=O)NCC(=O)N[C@@H](C)C(=O)N1CCC[C@H]1C(=O)N1CCC[C@H]1C(=O)N1CCC[C@H]1C(=O)N[C@@H](CO)C(N)=O` [Example 1], the Ki is above 969 nM in assay [1] (setting [3]) and 2.33 nM in assay [2] (setting [4]). Further, the EC50 on hGIPR (0.1% bovine casein and 1.0% human serum albumin, 37° C., read-out: hGIPR EC50, nM (SEM, n)) was 0.696 nM; on hGIPR (cAMP, incubated at 37° C., 0.1% bovine casein (no human serum albumin), read-out: hGIPR EC50, nM (SEM, n)) it was 0.0145 nM; at hGCGR (0.1% bovine casein and 1.0% human serum albumin, 37° C., geometric mean, read-out: hGCGR EC50, nM (SEM, n)), above 9950 nM; on hGCGR (cAMP, incubated at 37° C., 0.1% bovine casein (no human serum albumin), geometric mean, read-out: hGCGR EC50, nM (SEM, n)) it was above 9950 nM; at hGLP-1R (0.1% bovine casein and 1.0% human serum albumin, 37° C., read-out: hGLP-1R EC50, nM (SEM, n)), 30.7 nM. For the same compound, the maximum response (Emax) on hGIPR (HEK293, 0.1% bovine casein and 1.0% human serum albumin, 37° C., percent of maximal response to GIP(1-42)NH2, read-out: hGIPR Emax, % ± SEM) worked out at 87.5 ± 3.24%; at hGIPR (HEK293, percent of maximal response to GIP(1-42)NH2, 37° C., 0.1% bovine casein, arithmetic mean, read-out: hGIPR Emax, % ± SEM) it was 90.2 ± 2.82%; at hGLP-1R (HEK293, 0.1% bovine casein and 1.0% human serum albumin, 37° C., percent of maximal response to GLP-1(7-36)NH2, read-out: hGLP-1R Emax, % ± SEM) it was 94.3 ± 4.39%; on hGLP-1R (HEK293, percent of maximal response to GLP-1(7-36)NH2, 37° C., 0.1% bovine casein, arithmetic mean, read-out: hGLP-1R Emax, % ± SEM), 97 ± 4.47%.
Consider `CC[C@H](C)[C@H](NC(=O)[C@H](CC(C)C)NC(=O)[C@](C)(Cc1ccc(O)cc1)NC(=O)[C@H](CCCCNC(=O)COCCOCCNC(=O)[C@H]1CC[C@H](CNC(=O)CC[C@H](NC(=O)CCCCCCCCCCCCC(=O)O)C(=O)O)CC1)NC(=O)[C@@H](NC(=O)[C@H](Cc1ccccc1)NC(=O)[C@H](CCCN)NC(=O)C(C)(C)NC(=O)[C@H](CCC(N)=O)NC(=O)[C@H](C)NC(=O)[C@H](CCC(N)=O)NC(=O)[C@H](CCCN)NC(=O)[C@H](CC(=O)O)NC(=O)[C@H](CC(C)C)NC(=O)[C@](C)(CC(C)C)NC(=O)[C@@H](NC(=O)C(C)(C)NC(=O)[C@H](Cc1ccncc1)NC(=O)[C@H](CC(=O)O)NC(=O)[C@H](CO)NC(=O)[C@@H](NC(=O)[C@](C)(Cc1ccccc1F)NC(=O)[C@@H](NC(=O)CNC(=O)[C@H](CCC(=O)O)NC(=O)C(C)(C)NC(=O)[C@@H](N)Cc1ccc(O)cc1)[C@@H](C)O)[C@@H](C)O)[C@@H](C)CC)[C@@H](C)CC)C(=O)N[C@@H](CCCCNC(=O)COCCOCCNC(=O)[C@H]1CC[C@H](CNC(=O)CC[C@H](NC(=O)CCCCCCCCCCCCC(=O)O)C(=O)O)CC1)C(=O)NCC(=O)NCC(=O)N1CCC[C@H]1C(=O)N[C@@H](CO)C(=O)N[C@@H](CO)C(=O)NCC(=O)N[C@@H](C)C(=O)N1CCC[C@H]1C(=O)N1CCC[C@H]1C(=O)N1CCC[C@H]1C(=O)N[C@@H](CO)C(N)=O` [Example 472], for which the inhibition constant Ki in assay [1] (setting [3]) is 258 nM; in assay [2] (setting [4]) it was 0.254 nM. Further, the maximal response (Emax) at hGIPR (HEK293, cAMP, 37° C., 0.1% bovine casein and 1.0% human serum albumin, percent of maximal response to GIP(1-42)NH2, read-out: hGIPR Emax, % ± SEM) was 76.3%; on hGLP-1R (HEK293, cAMP, 37° C., 0.1% bovine casein, percent of maximal response to GLP-1(7-36)NH2, arithmetic mean, read-out: hGLP-1R Emax, % ± SEM) it was 118%. Also, the EC50 was 0.0131 nM at hGIPR (cAMP, 37° C., 0.1% bovine casein (no human serum albumin), read-out: hGIPR EC50, nM (SEM, n)); above 9950 nM on hGCGR (cAMP, 37° C., 0.1% bovine casein (no human serum albumin), geometric mean, read-out: hGCGR EC50, nM (SEM, n)); above 9950 nM on hGCGR (cAMP, 37° C., 0.1% bovine casein and 1.0% human serum albumin, geometric mean (SEM, n), read-out: hGCGR EC50, nM (SEM, n)); 0.154 nM on hGLP-1R (cAMP, 37° C., 0.1% bovine casein (no human serum albumin), read-out: hGLP-1R EC50, nM (SEM, n)).
